Values of other authors as cited in PubChem BioAssay AID1259409 (Chemical Carcinogenesis Research Information System (CCRIS), 2018).

System: rodent chemically induced tumor inhibition, incidence and multiplicity
Test: CCRIS tumor inhibitor studies
Settings: Route [Inhibitor]: ORAL

Structure (SMILES): Cc1c(-c2cnccn2)ssc1=S
- tumour outcome (control, treated, inhibition, significance) (Carcinogen: DIETHYLNITROSAMINE, 55-18-5, Dose [Inhibitor]: 0, 600 MG/KG DIET FOR DURATION OF STUDY BEGINNING 1 WK PRIOR TO CARCINOGEN TREATMENT (STUDY DURATION: 25 WK), Species: HAMSTER, Strain/Sex: SYRIAN/MALE, Target Tissue: Type of Lesion: TRACHEA: PAPILLOMA, Dose [Carcinogen]: 17.8 MG/KG BW 2/WK FOR 20 WK, Promoter: NONE USED): 100%, 95%, 5%, not significant
- tumour outcome (control, treated, inhibition, significance) (Carcinogen: N-BUTYL-N(4-HYDROXYBUTYL)NITROSAMINE, 3817-11-6, Dose [Inhibitor]: 0, 250 MG/KG DIET FOR 6 MO BEGINNING 1 WK PRIOR TO CARCINOGEN TREATMENT (STUDY DURATION: 6 MO), Species: MOUSE, Strain/Sex: BDF/MALE, Target Tissue: Type of Lesion: URINARY BLADDER: CARCINOMA, Dose [Carcinogen]: 7.5 MG IN 0.1 ML ETHANOL:WATER (20:80) 1/WK FOR 8 WK, Promoter: NONE USED): 35/78 (45%), 23/76 (30%), 33%, p<0.05
- tumour outcome (control, treated, inhibition, significance) (Carcinogen: N-BUTYL-N-(4-HYDROXYBUTYL)NITROSAMINE, 3817-11-6, Dose [Inhibitor]: 0, 100 MG/KG DIET FOR 6 MO BEGINNING 1 WK PRIOR TO CARCINOGEN TREATMENT (STUDY DURATION: 6 MO), Species: MOUSE, Strain/Sex: BDF/MALE, Target Tissue: Type of Lesion: URINARY BLADDER: CARCINOMA, Dose [Carcinogen]: 7.5 MG IN 0.1 ML ETHANOL:WATER (20:80) 1 WK FOR 8 WK, Promoter: NONE USED): 27/70 (39%), 27/70 (39%), 0%, not significant
- tumour outcome (control, treated, inhibition, significance) (Carcinogen: N-BUTYL-N-(4-HYDROXYBUTYL)NITROSAMINE, 3817-11-6, Dose [Inhibitor]: 0, 200 MG/KG DIET FOR 6 MO BEGINNING 1 WK PRIOR TO CARCINOGEN TREATMENT (STUDY DURATION: 6 MO), Species: MOUSE, Strain/Sex: BDF/MALE, Target Tissue: Type of Lesion: URINARY BLADDER: CARCINOMA, Dose [Carcinogen]: 7.5 MG IN 0.1 ML ETHANOL:WATER (20:80) 1/WK FOR 8 WK, Promoter: NONE USED): 30/73 (41%), 27/71 (38%), 7%, not calculated
- tumour outcome (control, treated, inhibition, significance) (Carcinogen: N-BUTYL-N-(4-HYDROXYBUTYL)NITROSAMINE, 3817-11-6, Dose [Inhibitor]: 0, 500 MG/KG DIET FOR 76 D THEN 125 MG/KG DIET FOR DURATION OF STUDY (STUDY DURATION: 6 MO), Species: MOUSE, Strain/Sex: BDF/MALE, Target Tissue: Type of Lesion: URINARY BLADDER: CARCINOMA, Dose [Carcinogen]: 7.5 MG IN 0.1 ML ETHANOL:WATER (20:80) 1/WK FOR 8 WK, Promoter: NONE USED): 35/78 (45%), 23/78 (29%), 36%, p<0.05
- tumour outcome (control, treated, inhibition, significance) (Carcinogen: N-METHYL-N'-NITRO-N-NITROSOGUANIDINE, 70-25-7, Dose [Inhibitor]: 0, 0.02% IN DIET FOR 12 WK BEGINNING 1 WK PRIOR TO CARCINOGEN TREATMENT (STUDY DURATION: 80 WK), Species: RAT, Strain/Sex: WISTAR/MALE, Target Tissue: Type of Lesion: GLANDULAR STOMACH: ADENOCARCINOMA, Dose [Carcinogen]: 100 PPM IN DRINKING WATER FOR 10 WK, Promoter: NONE USED): 17/30 (57%), 11/30 (37%), 35%, not calculated
- tumour outcome (control, treated, inhibition, significance) (Carcinogen: N-METHYL-N'-NITRO-N-NITROSOGUANIDINE, 70-25-7, Dose [Inhibitor]: 0, 0.04% IN DIET FOR 12 WK BEGINNING 1 WK PRIOR TO CARCINOGEN TREATMENT (STUDY DURATION: 80 WK), Species: RAT, Strain/Sex: WISTAR/MALE, Target Tissue: Type of Lesion: GLANDULAR STOMACH: ADENOCARCINOMA, Dose [Carcinogen]: 100 PPM IN DRINKING WATER FOR 10 WK, Promoter: NONE USED): 17/30 (57%), 5/30 (17%), 70%, p<0.01
- tumour outcome (control, treated, inhibition, significance) (Carcinogen: N-METHYL-N'-NITRO-N-NITROSOGUANIDINE, 70-25-7, Dose [Inhibitor]: 0, 0.04% IN DIET FOR 12 WK BEGINNING 1 WK PRIOR TO CARCINOGEN TREATMENT (STUDY DURATION: 81 WK), Species: RAT, Strain/Sex: WISTAR/MALE, Target Tissue: Type of Lesion: GLANDULAR STOMACH: ADENOCARCINOMA, Dose [Carcinogen]: 100 PPM IN DRINKING WATER FOR 10 WK, Promoter: NONE USED): 17/30 (57%), 5/30 (17%), 70%, p<0.01
- tumour outcome (control, treated, inhibition, significance) (Carcinogen: N-METHYL-N'-NITRO-NITROSOGUANIDINE, 70-25-7, Dose [Inhibitor]: 0, 0.02% IN DIET FOR 12 WK BEGINNING 1 WK PRIOR TO CARCINOGEN TREATMENT (STUDY DURATION: 81 WK), Species: RAT, Strain/Sex: WISTAR/MALE, Target Tissue: Type of Lesion: GLANDULAR STOMACH: ADENOCARCINOMA, Dose [Carcinogen]: 100 PPM IN DRINKING WATER FOR 10 WK, Promoter: NONE USED): 17/30 (57%), 11/30 (37%), 35%, not significant
- outcome (Carcinogen: N-NITROSOBIS(2-OXOPROPYL)AMINE, 60599-38-4, Dose [Inhibitor]: 0, 300 MG/KG IN DIET FOR 28 WK BEGINNING 2 WK PRIOR TO CARCINOGEN TREATMENT (STUDY DURATION: 28 WK), Species: HAMSTER, Strain/Sex: SYRIAN/FEMALE, Target Tissue: Type of Lesion: PANCREAS: DUCTAL ADENOCARCINOMA, Dose [Carcinogen]: 15 MG/KG BW 1/WK FOR 12 WK, Promoter: NONE USED): 17/19 (89%), 14/16 (88%), 1 %, not significant
- tumour outcome (control, treated, inhibition, significance) (Carcinogen: N-NITROSOBIS(2-OXOPROPYL)AMINE, 60599-38-4, Dose [Inhibitor]: 0, 600 MG/KG IN DIET FOR 28 WK BEGINNING 2 WK PRIOR TO CARCINOGEN TREATMENT (STUDY DURATION: 28 WK), Species: HAMSTER, Strain/Sex: SYRIAN/FEMALE, Target Tissue: Type of Lesion: PANCREAS: DUCTAL ADENOCARCINOMA, Dose [Carcinogen]: 15 MG/KG BW 1/WK FOR 12 WK, Promoter: NONE USED): 17/19 (89%), 9/15 (60%), 33%, p<0.05
- tumour outcome (control, treated, inhibition, significance) (Carcinogen: NITROSOBIS(2-OXOPROPYL)AMINE [60599-38-4], Dose [Inhibitor]: 200 PPM IN DIET FOR 4 WK BEGINNING 1 WK PRIOR TO FIRST CARCINOGEN DOSE (STUDY DURATION: 52 WK), Species: HAMSTER, Strain/Sex: SYRIAN/FEMALE, Target Tissue: Type of Lesion: GALL BLADDER: ADENOMA, Dose [Carcinogen]: 10 MG/KG BW 1X/WK FOR 3 WK (STUDY DURATION: 52 WK)): 13.3%, 21.7%, -63%, not significant
- tumour outcome (control, treated, inhibition, significance) (Carcinogen: NITROSOBIS(2-OXOPROPYL)AMINE [60599-38-4], Dose [Inhibitor]: 200 PPM IN DIET FOR 4 WK BEGINNING 1 WK PRIOR TO FIRST CARCINOGEN DOSE (STUDY DURATION: 52 WK), Species: HAMSTER, Strain/Sex: SYRIAN/FEMALE, Target Tissue: Type of Lesion: KIDNEY: RENAL CELL ADENOMA, Dose [Carcinogen]: 10 MG/KG BW 1X/WK FOR 3 WK (STUDY DURATION: 52 WK)): 3.3%, 3.4%, -3%, not significant
- tumour outcome (control, treated, inhibition, significance) (Carcinogen: NITROSOBIS(2-OXOPROPYL)AMINE [60599-38-4], Dose [Inhibitor]: 200 PPM IN DIET FOR 4 WK BEGINNING 1 WK PRIOR TO FIRST CARCINOGEN DOSE (STUDY DURATION: 52 WK), Species: HAMSTER, Strain/Sex: SYRIAN/FEMALE, Target Tissue: Type of Lesion: KIDNEY: RENAL CELL CARCINOMA, Dose [Carcinogen]: 10 MG/KG BW 1X/WK FOR 3 WK (STUDY DURATION: 52 WK)): 6.7%, 10.3%, -54%, not significant
- tumour outcome (control, treated, inhibition, significance) (Carcinogen: NITROSOBIS(2-OXOPROPYL)AMINE [60599-38-4], Dose [Inhibitor]: 200 PPM IN DIET FOR 4 WK BEGINNING 1 WK PRIOR TO FIRST CARCINOGEN DOSE (STUDY DURATION: 52 WK), Species: HAMSTER, Strain/Sex: SYRIAN/FEMALE, Target Tissue: Type of Lesion: LIVER: CHOLANGIOCELLULAR ADENOMA, Dose [Carcinogen]: 10 MG/KG BW 1X/WK FOR 3 WK (STUDY DURATION: 52 WK)): 6.7%, 0.0%, 100%, not significant
- outcome (Carcinogen: NITROSOBIS(2-OXOPROPYL)AMINE [60599-38-4], Dose [Inhibitor]: 200 PPM IN DIET FOR 4 WK BEGINNING 1 WK PRIOR TO FIRST CARCINOGEN DOSE (STUDY DURATION: 52 WK), Species: HAMSTER, Strain/Sex: SYRIAN/FEMALE, Target Tissue: Type of Lesion: LIVER: CHOLANGIOCELLULAR CARCINOMA, Dose [Carcinogen]: 10 MG/KG BW 1X/WK FOR 3 WK (STUDY DURATION: 52 WK)): 0.0%, 10.3%, -100%, not significant
